Assay results from publication PMC9382192, “Combined treatment with epigenetic agents enhances anti-tumor activity of MAGE-D4 peptide-specific T cells by upregulating the MAGE-D4 expression in glioma” (Frontiers in Oncology, 2022).

Assays:
U87 = assay: LDH cytotoxicity assay, U87; assay type: cell-based, human; conditions: TSA-treated U87, E:T 50:1, 4 h; compared to T cell alone and NC-T cell groups
Experimental: The human glioma cell lines (U87-MG and U251) were obtained from the Cell Bank of Type Culture Collection of the Chinese Academy of Science (Shanghai, China). Decitabine (DAC, CAS No. A3656), valproic acid (VPA, CAS No. 99-66-1), and trichostatin A (TSA, CAS No. 58880-19-6) were purchased from Sigma-Aldrich Corporation (St. Louis, MO, USA). DAC and TSA were dissolved in DMSO to a concentration of 10 mM. Aliquots were stored at −80°C and diluted with media before being used. […]
The cytotoxic activity of MAGE-D4 peptide-specific CTLs to glioma cells was determined according to the instructions of the manufacturers by our published method ([31]). […] Four hours later, suspended cells were collected for CD107a flow cytometry, meanwhile, the supernatant was collected and analyzed with granzyme A and perforin ELISA kit (Cloud-Clone Corporation, Wuhan, China) at 450 nm, and the LDH kit (Promega, USA) at 490 nm. The percentage of specific lysis was calculated using the following formula: [(experimental release − spontaneous release)/(maximum release − spontaneous release)] × 100. […] Then, the cytotoxicity assay was measured and calculated as mentioned above.

IL-2 = IL-2 ELISA of DC/T-cell co-culture supernatant; assay type: cell-based, human; conditions: 72 h co-culture supernatant, versus negative control peptide
Experimental: Production of cytokines in the supernatants was determined using commercially available ELISA kits (Cloud-Clone Corporation, Wuhan, China) according to the protocol of the manufacturer. Approximately 50 μl of supernatant and different concentration standards were added and mixed with 100 μl of horseradish peroxidase (HRP) labeled detection antibody against a 96-well plate, respectively, except for the blank control. After incubation at 37°C for 60 min, we washed the plate five times. Add substrate A and substrate B 50 μl respectively, incubate for 15min in a 37°C incubator in dark. Then, 50 μl of stop solution was added and a 450 nm absorbance value (OD value) was measured within 15 min. The regression equation of the standard curve is calculated according to the concentration of the standard substance and the OD value, and the corresponding sample concentration is calculated on the basis of the regression equation.

U87 glioma tissues = assay: CD8 immunohistochemistry of xenograft tissue; assay type: in vivo, BALB/C nude female mice; conditions: MAGE-D4-specific T cells in TSA-treated U87 glioma tissues, IHC
Experimental: Eighteen BALB/C nude female mice aged 4 weeks were provided by the Guangxi Experimental Animal Center. The mice were placed in a light-controlled room at 24 ± 1 °C (light: 7:00–19:00 h, dark: 19:00–7:00 h) and fed under specific pathogen-free conditions. All protocols followed the guidelines of the National Research Council for the Care and Use of Laboratory Animals and were approved by the Animal Ethics Committee of Guangxi Medical University. To develop a xenograft model, 4 × 10^6 U87 cells were inoculated into the flanks of the mice subcutaneously. Two weeks later, mice simultaneously received intraperitoneal peritumorally injections of TSA (0.5 mg/kg) and 1 × 10^7 peptides loaded on CD8^+ T cells, respectively. Every […], tumor volumes were measured simultaneously with a caliper. Mice were sacrificed by euthanasia when visibly ill. Mice injected with negative peptide-induced CTLs and CTLs without peptides were included as controls. The tumor volumes were calculated using the following formula: tumor volume = [(width2 × length)/2]. Immunochemistry was conducted to detect expressions of CD8 on tissue sections. […] Integrated optical density (IOD) was measured by image-Pro Plus software (version 6.0, Media Cybernetics, MD, USA) for images of five randomly selected regions from a slice. The results were expressed as average optical density (AOD = IOD/area).

Compound | cytotoxicity of peptide-specific T cells (specific lysis, LDH) (U87) | IL-2 secreted by DC-stimulated T cells (IL-2) | CD8+ T-cell infiltration in tumor tissue (U87 glioma tissues)
CLPPPNVIL [Peptide P8] | higher cytotoxicity | higher IL-2 | –
CC(/C=C/C(=O)NO)=C\[C@@H](C)C(=O)c1ccc(N(C)C)cc1 [TSA, trichostatin A] | – | – | highest degree
